{
  "source": "patent US8426448B2",
  "about": "“1,5-diphenyl-pyrrolidin-2-one compounds as CB-1 ligands” (Eli Lilly and Company, priority 2008, dated 2013)",
  "key": {"CYP2D6": {"molecular_target": "T1, CYP2D6 (Homo sapiens, UniProt P10635)", "T1 construct": "pooled, mixed gender, human liver microsomes; from tissue; host or cells: pooled, mixed gender human liver microsomes", "T1 sequence (P10635 whole entry)": "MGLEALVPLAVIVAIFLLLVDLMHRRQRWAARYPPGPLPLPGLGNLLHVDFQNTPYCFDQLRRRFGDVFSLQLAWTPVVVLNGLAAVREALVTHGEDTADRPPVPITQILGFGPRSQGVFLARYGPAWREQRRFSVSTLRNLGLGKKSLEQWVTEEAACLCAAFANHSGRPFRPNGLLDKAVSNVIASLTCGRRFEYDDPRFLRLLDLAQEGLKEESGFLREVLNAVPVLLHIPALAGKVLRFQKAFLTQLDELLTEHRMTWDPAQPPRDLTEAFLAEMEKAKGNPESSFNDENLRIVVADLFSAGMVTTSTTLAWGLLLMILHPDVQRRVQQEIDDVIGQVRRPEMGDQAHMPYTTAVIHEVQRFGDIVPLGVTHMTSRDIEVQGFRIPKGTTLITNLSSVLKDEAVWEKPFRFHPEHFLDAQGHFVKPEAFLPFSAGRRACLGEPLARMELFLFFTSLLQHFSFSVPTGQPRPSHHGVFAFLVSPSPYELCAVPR", "assay": "Human CYP fingerprinting, quinidine inhibition", "assay_type": "in vitro ADME", "conditions": "4 μM, human liver microsomes, 30 min, 10 μM quinidine", "experimental": "CYP fingerprinting is well established technique and is used as an indication of potential risk of drug-drug interactions in the pharmaceutical sciences. Compounds of the present invention may be assayed by well known methods, essentially as follows: Compounds are incubated at 37° C. at a final concentration of 4 μM with pooled, mixed gender, human liver microsomes and 1 mM NADPH (Nicotine Adenine Dinucleotide Phosphate) (final conc.) for 0 and 30 min. without any CYP inhibitor and with each CYP inhibitor in separate incubations for 30 min. Each inhibitor is specific for an individual cytochrome P450. The specific inhibitors used for CYPs 2C9, 2D6 and 3A were sulfaphenazole, quinidine and ketoconazole, respectively. Ketoconazole (CYP3A) is made up at 25 mM in DMSO and then diluted in buffer to a final concentration of 10 μM. Quinidine (CYP2D6) is made up at 5 mM in 50/50 acetonitrile/water and then diluted in buffer to a final concentration of 10 μM. Sulfaphenazole (CYP2C9) is made up at 100 mM in DMSO and then diluted in buffer to a final concentration of 5 μM. Samples are analyzed by LC-MS in positive or negative electrospray mode using a Waters Acquity Ultra Performance LC coupled to a MicroMass Q-T of-2 mass spectrometer.\nData are analyzed using MetaboLynx™ version 4.1. […]"}, "hCB-2": {"molecular_target": "T2, hCB-2 (Homo sapiens, UniProt P34972)", "T2 construct": "purchased Perkin Elmer, Boston, Mass; host or cells: Sf9 cell membranes", "T2 sequence (P34972 whole entry)": "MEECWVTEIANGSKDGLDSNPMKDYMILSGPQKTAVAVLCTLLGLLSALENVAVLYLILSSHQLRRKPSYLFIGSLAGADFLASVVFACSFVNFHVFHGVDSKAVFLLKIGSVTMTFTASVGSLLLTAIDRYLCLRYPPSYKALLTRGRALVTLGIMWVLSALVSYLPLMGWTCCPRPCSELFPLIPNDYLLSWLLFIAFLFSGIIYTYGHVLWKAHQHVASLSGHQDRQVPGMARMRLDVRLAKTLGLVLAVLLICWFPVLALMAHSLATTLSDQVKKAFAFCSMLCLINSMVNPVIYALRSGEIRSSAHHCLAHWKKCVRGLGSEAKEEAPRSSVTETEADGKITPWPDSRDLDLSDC", "assay": "hCB2-Sf9 antagonist mode SPA GTP-γ-35S binding assay", "assay_type": "biochemical", "conditions": "antagonist mode vs methanandamide; read-out: hCB-2 SPA GTPγS Sf9 Membrane Antagonist Kb", "experimental": "Compounds of the present invention may be tested for functional activity at the CB-1 and CB-2 receptors in both agonist and antagonist modes using SPA (Scintillation Proximity Assay) based GTP-γ-^35S binding assays. All assay components are prepared in assay buffer (20 mM HEPES, 100 mM NaCl, 5 mM MgCl2, pH 7.4) at room temperature. Semi-log dilutions of test compound are prepared in assay buffer containing BSA (0.125% final conc.) for the agonist mode assays. For the antagonist mode assays, test compounds are prepared in the same manner but also include an 80% efficacious dose of a full agonist (methanandamide). GTP-γ^35S binding for the antagonist assay may be measured in a 96 well format using a modification of an antibody capture technique previously described. (DeLapp, N W, et al. (1999) J Pharmacol Exp Ther 289:946-955.) The CB-2 receptor agonist activity may be measured using a similar method using hCB2-Sf9 membranes. The CB-1 receptor agonist activity may be measured using a whole membrane capture technique using hCB1-CHO membranes. All incubations are done at room temperature. […]\nData are analyzed as follows: Background is subtracted from all wells. […] Percent antagonist inhibition is calculated by first normalizing the data to the signal generated by a saturating concentration of the full agonist (methanandamide). Then the data are analyzed using a 4-parameter logistic reduced fit (Activity Base™ and XLFit3™ from IDBS, Emeryville, Calif.). Kb values are determined using a modification of the Cheng-Prusoff relationship: Kb=IC50/(1+[agonist]/EC50), where “IC50” is determined from a four parameter fit of displacement curves, “[agonist]” is the agonist challenge concentration (nM), and “EC50” is determined from a four parameter fit of a full agonist concentration response curve (Cheng and Prusoff 1973). Mean Kb values are calculated as a mean of at least three independent determinations±standard error of the mean (SEM). […]"}, "Rat oral bioavailability": {"assay": "Rat oral bioavailability", "assay_type": "in vivo", "conditions": "Sprague-Dawley, plasma, fasted male SD rats, IV 0.25 mg/kg (20% Pharmasolve, 10% HPBCD, pH 3), PO 1 mg/kg (1% CMC, 0.5% SLS, 0.5% AF), mean±s.d, n=3, based on AUC0-∞", "experimental": "Cohorts of three or four 250-450 gram male Sprague-Dawley rats or approximately 10 kg Beagle dogs (female or male) are used. […] Dogs are administered i.v. by cannulated cephalic vein and blood collections are by jugular vein. Animals are first dosed at 0.25 mg/kg i.v. and blood samples (0.2 mL) are then collected using EDTA as an anticoagulant at 0.0830, 0.25, 0.50, 1, 2, 4, 8, 12, 24, 48, 72, 96, and 120 hours. Next after at least two days and after 18-24 hours fasting, the animals are dosed at 1.0 mg/kg by oral gavage. During the course of a study the total of blood (ml) collected is not to exceed 1% of total body weight in grams. Should larger blood volumes be required, the sampled blood volume is replace with heparinized whole blood from a donor animal. When using a cross-over study design, rats receive a volume of heparinized whole blood following the final sample of each study day approximately equal to that removed during study.\nCompound plasma concentrations are measured by LC/MS/MS assays. Data are then analyzed using standard non-compartmental pharmacokinetic analysis. Oral bioavailability is calculated as: (AUC0-infinity,oral/AUC0-infinity,i.v.)×(Dose,i.v./Dose,oral)×100%"}},
  "note": "Structures can show the parent of a compound that is named as a salt.",
  "data": [
    {"smiles": "CC(C)(N[C@@H]1C[C@H](c2cccc(C(F)(F)F)c2)N(c2ccc(OC(F)(F)F)cc2)C1=O)c1cccc(C(F)(F)F)n1", "note": "[28 HCl salt, (3R,5R)-3-[1-methyl-1-(6-trifluoromethyl-pyridin-2-yl)-ethylamino]-1-(4-trifluoromethoxy-phenyl)-5-(3-trifluoromethyl-phenyl)-pyrrolidin-2-one]", "values": [
      {"measurement": "Risk of Drug Drug Interaction (DDI) CYP2D6", "setting": "CYP2D6", "value": "Low"},
      {"measurement": "Kb", "setting": "hCB-2", "value": "> 9.09", "unit": "µM"},
      {"measurement": "bioavailability", "setting": "Rat oral bioavailability", "value": "40 ± 6", "unit": "%"}
    ]}
  ]
}
